Experimental data taken from US20240053345A1, “POLYPEPTIDES BINDING SELECTIVELY HEPARIN OR HEPARAN SULFATE GLYCOSAMINOGLYCANS AND CELL-PENETRATING POLYPEPTIDES COMPRISING THE SAME” (SORBONNE UNIVERSITE, priority 2020, published 2024).
Where a SMILES comes first, the peptide text is derived from it. The star is where a group is joined. Biotin = O=C1N[C@H]2[C@H](CS[C@H]2CCCCC(=O)*)N1

Tests used:
[1] = system: CHO-745, CHO-K1, CaOV-3 and SKOV-3 cells; assay: Quantification of internalization of peptides in four cell lines; format: cell-based; settings: CHO-K1 or the two ovarian cancer cells (CaOV-3, SKOV-3) vs CHO-745; 1 h incubation at 37° C.
Experimental: (§1) FIG. 2: Quantification of the internalization of peptides, studied in GAGs-deficient cells CHO-745 (white bar), wild type cells CHO-K1 (light grey bar) and two ovarian adenocarcinoma cells CaOV-3 (dark grey bar) and SKOV-3 (black bar) after 1 h incubation at 37° C. Experiments were done in duplicate or triplicate and repeated at least three times independently. Significance was tested using a student's t-test (NS:p>0.05, *0.05>p>0.01, **0.01>p>0.001, ***0.001>p).
(§2) Peptides listed in Table 1 were incubated separately in the following four ovarian cell types which have different GAGs types and expression levels: wild type CHO-K1 (expressing heparan sulfate (HS), chondroitin sulfate A (CSA) and C (CSC)), CHO-pgs A475 (CHO-745) (genetically modified to express only 5-10% HS and CS), two human ovarian adenocarcinoma cells CaOV-3 (overexpressing HS and CSE) and SKOV-3 (overexpressing CSE). Peptides were incubated with one million cells at 37° C. for 1 h.
(§3) Wild type Chinese Hamster Ovary (CHO-K1) cells and GAGs-deficient mutant CHO-745 cells which lack the xylosyltransferase needed for glycosaminoglycan (GAG) synthesis were grown in Dulbecco's modified Eagle's medium F-12 (DMEMF-12) with L-glutamine and 15 mM HEPES. HEK cells and HeLa cells were grown in DMEM with 4.5 g/L D-glucose and pyruvate. Two types of human ovarian cancer cell lines CaOV-3 and SKOV-3 were cultured in DMEM with Glutamax and McCoy's 5A medium, respectively. All complete culture medium was supplemented with 10% fetal bovine serum, penicillin (100,000 IU/L), streptomycin (100 mg/L). Cells were grown in a humidified atmosphere at 37° C. and 5% CO2.

CaOV-3 cells = assay: Internalization of peptides in CaOV-3 cells; format: cell-based, human; settings: for internalization efficacy in CaOV-3 compared to CHO-K1 / intracellular concentration of internalized peptide: 1 h at 37° C.; for intracellular concentration of internalized peptide: 1 pmol in 1 million cells taken as 1 μM (1 pL/cell)
Experimental: as §1
(§4) FIG. 3: Quantification of internalization of chimeric peptides P1, P3 and P5 in cells CHO-745 (a,b) and in CaOV-3 cells (c,d). Peptides were incubated with cells for 1 h along with heparin (a) or chondroitin sulfate-E (b). P1 was also incubated with CaOV-3 for 1 h along with heparin (c) and P3 incubated with CaOV-3 in the presence of CS-E (d) at different concentrations. Experiments were done in duplicate or triplicate and repeated at least three times independently.
as §2, §3
(§5) Tested Peptides were incubated separately in the following two ovarian cell types: CHO-745 and CaOV-3. The inventors incubated (7.5 μM) peptides with cells lines for 1 h along with exogenous heparin (HI) or chondroitin-4,6-sulfate (CSE) and quantified the internalized peptides by MS.

SKOV-3 cells = assay: Internalization of peptides in SKOV-3 cells, also after sodium chlorate or GAG-specific enzyme pre-treatment; format: cell-based, human; settings: for cellular uptake in SKOV-3 compared to CHO-K1: 1 h at 37° C.; for internalization after chondroitinase ABC (ChABC) treatment: enzyme pre-treatment 2 h; for internalization after heparinases cocktail treatment: heparinases I, II and III pre-treatment 2 h
Experimental: as §1
FIG. 4: Quantification of P3 after SKOV-3 pre-treatment with sodium chlorate for 24 h or GAG-specific enzymes for 2 h (a) and P1 after SKOV-3 pre-treatment with GAG-specific enzymes for 2 h (b). Experiments were done in duplicate or triplicate and repeated at least three times independently. Significance was tested using a student's t-test (NS:p>0.05, *0.05>p>0.01, **0.01>p>0.001, ***0.001>p).
as §2, §3
Tested Peptides were incubated separately in the following ovarian cell type: SKOV-3. A pre-treatment with sodium chlorate for 24 h or GAG-specific enzymes for 2 h.
The inventors used different concentrations of chlorate to treat SKOV-3 and analyzed the internalization of P3. […] The inventors also checked that there is no cytotoxicity generated by 100 mM concentration of NaClO3. […] Not merely impairment of sulfation leads to significant P3 internalization decline, enzymatic GAGs degradation might also impact on peptide internalization. They used two specific enzymes: one is the blend of heparinases I, II and III that are extracted from Flavobacterium heparinum and hydrolyze the glycosidic bonds of glucosamine and uronic acids; the other one is chondroitinase ABC (ChABC) lyase purified from Proteus Vulgaris that specifically catalyzes the degradation of chondroitin 4-sulfate, chondroitin 6-sulfate containing (1-4)-β-D-hexosaminyl and (1-3)-β-D-glucuronosyl or (1-3)-α-L-iduronosyl linkages to disaccharides containing 4-deoxy-β-D-gluc-4-enuronosyl groups.

CHO-745 cells = assay: Internalization of peptides in GAGs-deficient cells with exogenous GAGs, quantified by MS; format: cell-based, Chinese Hamster; settings: for cellular quantity of internalized peptide: 7.5 μM peptide
Experimental: as §4
FIG. 5: The effect of heparin favoring P1 internalization can be reversed by addition of heparinase in […].
as §3, §5
P1 was incubated in the CHO-745 ovarian cell type with different concentrations of heparinase. Cells culture are similar to the example 1.

blood cells = assay: Hemolysis; format: cell-based; settings: even at 50 μM for 2 h
Experimental: (§6) The inventors tested cytotoxicity and hemolysis activity of the peptides incubated with CHO-K1 cells at different concentrations.

[2] = Binding to chondroitin sulfate-E
[3] = co-incubation with 7.2 μg/ml CSE, 1 h
[4] = co-incubation with 7.2 μg/ml HI, 1 h

Experimental for CHO-K1 cells: as §6

For “Biotin-GGGG-KEDKRPRTAFTAEQL SQIKIWFQNKRAKIKK-NH2 [P5]”, the “internalization compared with CHO-745 cells” value [1] was “entered significantly more”, the “internalization efficacy in CaOV-3 compared to CHO-K1” value (CaOV-3 cells) was “increased their internalization efficacy” and the “intracellular concentration of internalized peptide” value (“intracellular concentration” below) (CaOV-3 cells; CaOV-3) was 7 µM. The “cellular uptake in SKOV-3 compared to CHO-K1” value (SKOV-3 cells) was “apparently increased their cellular uptake”, the “cellular quantity of internalized peptide” value (from here on “cellular quantity”) (CHO-745 cells; [3]) was 2.2 pmol and the “cellular quantity” value (CHO-745 cells; [4]) was ~22 pmol.
With `CC[C@H](C)[C@H](NC(=O)[C@H](CCCCN)NC(=O)[C@H](C)NC(=O)[C@H](CCCNC(=N)N)NC(=O)[C@H](CCCCN)NC(=O)[C@H](CC(N)=O)NC(=O)[C@H](CCC(N)=O)NC(=O)[C@H](Cc1ccccc1)NC(=O)[C@H](Cc1c[nH]c2ccccc12)NC(=O)[C@@H](NC(=O)[C@H](CCCCN)NC(=O)[C@@H](NC(=O)[C@H](CCC(N)=O)NC(=O)[C@H](CO)NC(=O)[C@H](CC(C)C)NC(=O)[C@H](CCC(N)=O)NC(=O)[C@H](C)NC(=O)[C@H](CCCNC(=N)N)NC(=O)[C@@H](NC(=O)[C@H](Cc1ccccc1)NC(=O)[C@@H](NC(=O)[C@@H](NC(=O)[C@H](CCCNC(=N)N)NC(=O)[C@H](CCC(=O)O)NC(=O)[C@H](CCCNC(=N)N)NC(=O)[C@H](CCCNC(=N)N)NC(=O)[C@H](CCC(N)=O)NC(=O)[C@H](CCCCN)NC(=O)[C@H](CCCNC(=N)N)NC(=O)CNC(=O)CNC(=O)CNC(=O)CNC(=O)CNC(=O)CCCC[C@@H]1SC[C@@H]2NC(=O)N[C@@H]21)[C@@H](C)O)[C@@H](C)O)[C@@H](C)O)[C@@H](C)CC)[C@@H](C)CC)C(=O)N[C@@H](CCCCN)C(=O)N[C@@H](CCCCN)C(N)=O` [P3, Biotin-G5-RKQRRERTTFTRAQL SQIKIWFQNKRAKIKK-NH2] (Biotin-GGGGGRKQRRERTTFTRAQLSQIKIWFQNKRAKIKK-NH2) the cytotoxicity (CHO-K1 cells) was “not Cytotoxic”, the “hemolysis of blood cells” value (blood cells) was “no hemolysis” and the “internalization compared with CHO-745 cells” value [1] was “entered significantly more”. For the same compound, the “internalization efficacy in CaOV-3 compared to CHO-K1” value (CaOV-3 cells) was “increased their internalization efficacy”, the “intracellular concentration” value (CaOV-3 cells; CaOV-3) was 24 µM and the “effect of CSE addition on internalization” value (“effect of CSE addition” below) (CaOV-3 cells; CaOV-3, CSE 7.2 μg/ml, 1 h) was “evokes P3 internalization”. For the same compound, the “effect of CSE addition” value (CaOV-3 cells; CaOV-3, CSE concentrations below 3.6 μg/ml, 1 h) was “inhibited P3 internalization”, the “cellular uptake in SKOV-3 compared to CHO-K1” value (SKOV-3 cells) was “apparently increased their cellular uptake” and the “internalization after chondroitinase ABC (ChABC) treatment” value (SKOV-3 cells; SKOV-3) was “significantly curtailed internalization”. For the same compound, the “internalization after heparinases cocktail treatment” value (SKOV-3 cells; SKOV-3) was “almost no difference”, the “internalization efficacy after sodium chlorate pre-treatment” value (SKOV-3 cells; SKOV-3, sodium chlorate 24 h, concentration-dependent) was “dramatically reduced” and the “cellular quantity” value (CHO-745 cells; [3]) was “around 6.5 pmol”. The “cellular quantity” value (CHO-745 cells; [4]) was ~28 pmol.
For `CC[C@H](C)[C@H](NC(=O)[C@H](CCCCN)NC(=O)[C@H](C)NC(=O)[C@H](CCCNC(=N)N)NC(=O)[C@H](CCCCN)NC(=O)[C@H](CC(N)=O)NC(=O)[C@H](CCC(N)=O)NC(=O)[C@H](Cc1ccccc1)NC(=O)[C@H](Cc1c[nH]c2ccccc12)NC(=O)[C@@H](NC(=O)[C@H](CCCCN)NC(=O)[C@@H](NC(=O)[C@H](CCC(N)=O)NC(=O)[C@H](CO)NC(=O)[C@H](CCCNC(=N)N)NC(=O)[C@@H]1CCCN1C(=O)[C@H](CCCNC(=N)N)NC(=O)[C@H](CCCCN)NC(=O)[C@H](CC(=O)O)NC(=O)[C@H](CCC(=O)O)NC(=O)[C@H](CCCCN)NC(=O)[C@H](CC(N)=O)NC(=O)[C@@H]1CCCN1C(=O)[C@H](CC(N)=O)NC(=O)[C@H](CCCCN)NC(=O)[C@H](CCCCN)NC(=O)[C@H](CCCCN)NC(=O)[C@@H]1CCCN1C(=O)[C@H](CCCCN)NC(=O)[C@H](CCCNC(=N)N)NC(=O)[C@H](CO)NC(=O)[C@H](CCCNC(=N)N)NC(=O)CNC(=O)CNC(=O)CNC(=O)CNC(=O)CNC(=O)CCCC[C@@H]1SC[C@@H]2NC(=O)N[C@@H]21)[C@@H](C)CC)[C@@H](C)CC)C(=O)N[C@@H](CCCCN)C(=O)N[C@@H](CCCCN)C(N)=O` [P1, Biotin-G5-RSRKPKKKNPNKEDKRPR SQIKIWFQNKRAKIKK-NH2] (Biotin-GGGGGRSRKPKKKNPNKEDKRPRSQIKIWFQNKRAKIKK-NH2), the cytotoxicity (CHO-K1 cells) was “not Cytotoxic”, the “hemolysis of blood cells” value (blood cells) was “no hemolysis” and the “internalization compared with CHO-745 cells” value [1] was “entered significantly more”. For the same compound, the “internalization efficacy in CaOV-3 compared to CHO-K1” value (CaOV-3 cells) was “increased their internalization efficacy”, the “intracellular concentration” value (CaOV-3 cells; CaOV-3) was 7 µM and the “effect of HI on relative internalization” value (CaOV-3 cells; CaOV-3, exogenous heparin, 1 h) was “favorable effect”. For the same compound, the “internalization after chondroitinase ABC (ChABC) treatment” value (SKOV-3 cells; SKOV-3) was “decrease”, the “internalization after heparinases cocktail treatment” value (SKOV-3 cells; SKOV-3) was “decrease” and the “binding to CSE” value [2] was “high binding affinity”. For the same compound, the “cellular quantity” value (CHO-745 cells; [4]) was “around 21 pmol”, the “effect of CSE addition” value (CHO-745 cells; exogenous CSE, 1 h) was “made no effect” and the “effect of degradation fragments of HI on internalization” value (CHO-745 cells; heparin degraded by heparinase) was “lost the ability”. The “effect of intact HI on internalization” value (CHO-745 cells; intact heparin) was “promoted P1 internalization”.
With “SQIKIWFQNKRAKIKK [En2H3, Ac-SQIKIWFQNKRAKIKK-NH2]” the “internalization compared with CHO-745 cells” value [1] was “entered significantly more”, the “internalization efficacy in CaOV-3 compared to CHO-K1” value (CaOV-3 cells) was “increased their internalization efficacy” and the “intracellular concentration” value (CaOV-3 cells; CaOV-3) was 7 µM.
